The logP is a log measure of how a compound divides between an organic and an aqueous phase. The low end stands for a more hydrophilic compound, the high end for a more lipophilic compound.

Peptide text beside a SMILES is read from it.

`OCCCCc1ccccc1` showed a logP of 2.35.

`Clc1cc(Cl)nc(Cl)c1` came in with a logP of 2.68. `COC(=O)CCc1ccccc1` showed a lipophilicity (logP) of 2.32. `C(#Cc1ccccc1)c1ccccc1` yielded a logP of 4.78. The value for `Oc1cccc(Br)c1` was 2.63. Consider `CC(C)(C)c1ccccc1`, for which the logP turned out to be 4.11. The same measure for `Cc1c(NC(=O)C(C)N(C)C)c(=O)n(-c2ccccc2)n1C` (stereo not given): -0.05; for `CN(C)C(N(C)C)=S(I)c1ccc(Cl)cc1Cl` (stereo not given): 0.47; for `O=S(=O)(CCl)c1ccccc1`: 1.24. `NC(=O)Nc1ccccc1` displayed a logP of 0.83. The value for `CNC(=O)Oc1ccccc1C(C)C` was 2.31; that for `O=[N+]([O-])O[C@H]1CO[C@H]2[C@@H]1OC[C@H]2O[N+](=O)[O-]` was 1.31; that for `CCOC(=O)C(=Cc1ccccc1[N+](=O)[O-])C(=O)OCC` was 2.54. For `FC(F)OC(Cl)C(F)(F)F` (stereo not given), the logP was 2.06. `Clc1nnnn1-c1ccccc1` yielded a logP of 1.48. Compound `CCNC(=O)CBr` registered a logP of 0.34.

In the case of `Cc1ccccc1OCC(O)CO` (stereo not given), the logP worked out at 1.41. `CCCS` came in with a logP of 1.81.

For the compound `CCCCc1cccc(OCC(=O)O)c1`, the logP stood at 3.18.

As to `CCN(CC)c1cc(C(=O)NN)ccn1`, the logP turned out to be 1.12. `O=C(c1ccccc1)c1ccc(NS(=O)(=O)C(F)(F)F)cc1` displayed a logP of 4.28. The value for `CC(C)(C)C(=O)Nc1ccccc1` was 1.99; that for `CCCC[SiH](C)C` was 3.57. As to `c1ccc(-c2nc3ccccc3s2)cc1`, the logP is 4.26.

Consider `CC(C)CC#N`, for which the logP amounted to 1.07.

For the compound `CCc1ccccn1`, the logP is 1.69.

Regarding `NNC(=O)c1ccnc(Cl)c1`, the logP amounted to 0.11. The same measure for `CS(=O)(=O)c1cccc(-c2nc(N)nc(N)n2)c1`: 0.29; for `C=CNP(=O)(NC=C)NC(=O)c1ccc(OC)cc1`: 1.08; for `CNC(=S)NCCSCc1c[nH]cn1`: 0.16. `CCOC(=O)Nc1ccccc1` showed a logP of 2.3. In the case of `OCCCCl`, the logP was 0.5. As to `CC(C)NC(=O)c1cccnc1`, the logP came to 0.59. For the compound `c1ccc2c(c1)COC2`, the logP worked out at 1.76. The value for `CC(C)=NOCCOC(=O)[C@@H](C)Oc1ccc(Oc2cnc3cc(Cl)ccc3n2)cc1` was 4.6. The value for `O=C(O)CCn1nnc2ccccc21` was -0.63; that for `O=C(c1ccccc1)n1c(=O)[nH]cc(F)c1=O` was 0.8; that for `CC(C)CCOc1cc(N)ccc1C(=O)O` was 2.3. Regarding `O=[N+]([O-])c1ccc(Nc2ccccc2)cc1`, the logP came out at 3.74. The same measure for `CC(CN(C)C)CN1c2ccccc2Sc2ccccc21` (stereo not given): 4.71; for `NNc1ccc([N+](=O)[O-])cc1`: 1.41; for `CC(=O)NCC(=O)N[C@@H](CC(C)C)C(=O)NCC(N)=O` (Ac-Gly-Leu-Gly-NH2): -1.23. The value for `Cc1ccc(C)n1N(C)c1ccc(N2CCOCC2)nn1` was 2.21; that for `CCN(CC)CCNC(=O)c1cc(S(=O)(=O)CC)c(N)cc1OC` was 1.7. The same measure for `O=C1CCCCCCCN1`: 0.67; for `CC(C)C(Br)C(=O)NC(N)=O` (stereo not given): 1.14.

With `CCOP(=S)(OCC)SCn1nnc2ccccc2c1=O`, the logP turned out to be 3.4. As for `C1=CCCC=CCC1`, the logP turned out to be 3.16. `CN(C)C(=O)Nc1ccc(C2CCCCC2)cc1` had a logP of 3.83. The value for `O=[N+]([O-])c1ccc(O)c([N+](=O)[O-])c1` was 1.67.

Regarding `Cn1c([N+](=O)[O-])cnc1-c1ccc(C(N)=O)cc1`, the logP is 0.98. Regarding `CCOC(=O)C(C(=O)OCC)=C(C(=O)OCC)C(=O)OCC`, the logP amounted to 2.63. For `N#Cc1ccc(C(=O)O)cc1`, the logP amounted to 1.56. `OCCCl` gave a logP of 0.03. `ClCCc1ccccc1` displayed a log partition coefficient (logP) of 2.95.

The values above are taken from the OPERA property sets (Mansouri et al. 2018).
